Results taken from the kinase profiling compilation of Christmann-Franck et al. (2016).

Experiments:
Experiment in all cases: KINOMEscan competition binding
Settings in all cases: compound 10.0 µM
DDR2 (human) = DDR2 (human) (UniProt Q16832)
MERTK (human) = MERTK (human) (UniProt Q12866)
MAP3K11 (human) = MAP3K11 (human) (UniProt Q16584)
PRPF4B (human) = PRPF4B (human) (UniProt Q13523)
DAPK1 (human) = DAPK1 (human) (UniProt P53355)
PRKACA (human) = PRKACA (human) (UniProt P17612)
CDK17 (human) = CDK17 (human) (UniProt Q00537)
MAPK13 (human) = MAPK13 (human) (UniProt O15264)
CAMK2B (human) = CAMK2B (human) (UniProt Q13554)
CSNK2A2 (human) = CSNK2A2 (human) (UniProt P19784)
MAP2K7 (human) = MAP2K7 (human) (UniProt O14733)
CLK4 (human) = CLK4 (human) (UniProt Q9HAZ1)
RPS6KA6 KD1 (human) = RPS6KA6 KD1 (human) (UniProt Q9UK32)
STK3 (human) = STK3 (human) (UniProt Q13188)
CASK (human) = CASK (human) (UniProt O14936)
SYK (human) = SYK (human) (UniProt P43405)
RET (human) = RET (human) (UniProt P07949)
PKMYT1 (human) = PKMYT1 (human) (UniProt Q99640)
CAMKK2 (human) = CAMKK2 (human) (UniProt Q96RR4)
MTOR (human) = MTOR (human) (UniProt P42345)
CPK1 (P.falciparum) = tested on: CPK1 (P.falciparum)
YSK4 (human) = YSK4 (human) (UniProt Q56UN5)
CDKL2 (human) = CDKL2 (human) (UniProt Q92772)
AKT1 (human) = AKT1 (human) (UniProt P31749)
PRKCH (human) = PRKCH (human) (UniProt P24723)
CSNK1G1 (human) = CSNK1G1 (human) (UniProt Q9HCP0)
ANKK1 (human) = ANKK1 (human) (UniProt Q8NFD2)
ADCK3 (human) = ADCK3 (human) (UniProt Q8NI60)
EPHA3 (human) = EPHA3 (human) (UniProt P29320)
MAST1 (human) = MAST1 (human) (UniProt Q9Y2H9)
PIK3C2B (human) = PIK3C2B (human) (UniProt O00750)
EPHA4 (human) = EPHA4 (human) (UniProt P54764)
EPHB2 (human) = EPHB2 (human) (UniProt P29323)
FGFR4 (human) = FGFR4 (human) (UniProt P22455)
MAP2K4 (human) = MAP2K4 (human) (UniProt P45985)
NEK7 (human) = NEK7 (human) (UniProt Q8TDX7)
MKNK2 (human) = MKNK2 (human) (UniProt Q9HBH9)
EPHB4 (human) = EPHB4 (human) (UniProt P54760)
MAP3K6 (human) = MAP3K6 (human) (UniProt O95382)
STK36 (human) = STK36 (human) (UniProt Q9NRP7)

CSNK2A2 (human), sequence (P19784 whole entry, looked up): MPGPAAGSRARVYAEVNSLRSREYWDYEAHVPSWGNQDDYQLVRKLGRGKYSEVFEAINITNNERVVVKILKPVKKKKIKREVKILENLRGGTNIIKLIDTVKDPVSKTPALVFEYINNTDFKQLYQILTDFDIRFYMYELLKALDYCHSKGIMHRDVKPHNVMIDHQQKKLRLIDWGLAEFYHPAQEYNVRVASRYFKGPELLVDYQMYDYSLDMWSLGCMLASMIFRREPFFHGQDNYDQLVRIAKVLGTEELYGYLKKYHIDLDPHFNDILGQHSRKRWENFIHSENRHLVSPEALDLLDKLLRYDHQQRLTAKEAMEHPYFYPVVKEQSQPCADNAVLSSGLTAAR
FGFR4 (human), sequence (P22455 whole entry, looked up): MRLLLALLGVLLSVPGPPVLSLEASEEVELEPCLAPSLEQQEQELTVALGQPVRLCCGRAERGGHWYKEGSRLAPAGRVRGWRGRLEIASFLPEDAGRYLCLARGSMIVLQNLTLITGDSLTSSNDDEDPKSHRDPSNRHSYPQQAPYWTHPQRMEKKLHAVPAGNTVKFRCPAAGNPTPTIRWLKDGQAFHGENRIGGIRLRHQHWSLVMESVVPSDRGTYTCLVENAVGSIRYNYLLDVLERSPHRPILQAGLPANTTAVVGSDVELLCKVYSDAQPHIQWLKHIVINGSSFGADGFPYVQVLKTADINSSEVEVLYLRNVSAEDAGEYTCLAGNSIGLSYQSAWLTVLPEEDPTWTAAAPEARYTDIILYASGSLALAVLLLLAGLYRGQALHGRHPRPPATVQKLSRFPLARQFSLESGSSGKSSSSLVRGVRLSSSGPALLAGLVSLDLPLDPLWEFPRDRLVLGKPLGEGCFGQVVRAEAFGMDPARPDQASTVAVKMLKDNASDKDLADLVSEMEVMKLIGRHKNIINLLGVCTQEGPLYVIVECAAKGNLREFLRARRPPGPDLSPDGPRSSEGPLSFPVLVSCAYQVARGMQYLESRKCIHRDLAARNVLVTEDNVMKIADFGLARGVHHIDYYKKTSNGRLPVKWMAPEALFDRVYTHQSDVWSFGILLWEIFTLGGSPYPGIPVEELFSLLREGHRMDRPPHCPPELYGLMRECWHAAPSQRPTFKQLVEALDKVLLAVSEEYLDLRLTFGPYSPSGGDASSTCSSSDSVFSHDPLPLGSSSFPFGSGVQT
MAP2K7 (human), sequence (O14733 whole entry, looked up): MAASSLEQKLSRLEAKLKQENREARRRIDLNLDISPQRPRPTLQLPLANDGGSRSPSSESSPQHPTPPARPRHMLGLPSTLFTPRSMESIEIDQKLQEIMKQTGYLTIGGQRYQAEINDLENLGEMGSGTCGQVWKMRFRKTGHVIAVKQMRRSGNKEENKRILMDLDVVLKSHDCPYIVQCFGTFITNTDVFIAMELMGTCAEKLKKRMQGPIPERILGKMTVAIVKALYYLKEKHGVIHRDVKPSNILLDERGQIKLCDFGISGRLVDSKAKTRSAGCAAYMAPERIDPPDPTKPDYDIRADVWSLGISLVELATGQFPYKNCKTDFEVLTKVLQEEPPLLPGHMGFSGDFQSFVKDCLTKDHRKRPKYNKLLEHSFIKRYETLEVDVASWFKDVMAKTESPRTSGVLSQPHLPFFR
CASK (human), sequence (O14936 whole entry, looked up): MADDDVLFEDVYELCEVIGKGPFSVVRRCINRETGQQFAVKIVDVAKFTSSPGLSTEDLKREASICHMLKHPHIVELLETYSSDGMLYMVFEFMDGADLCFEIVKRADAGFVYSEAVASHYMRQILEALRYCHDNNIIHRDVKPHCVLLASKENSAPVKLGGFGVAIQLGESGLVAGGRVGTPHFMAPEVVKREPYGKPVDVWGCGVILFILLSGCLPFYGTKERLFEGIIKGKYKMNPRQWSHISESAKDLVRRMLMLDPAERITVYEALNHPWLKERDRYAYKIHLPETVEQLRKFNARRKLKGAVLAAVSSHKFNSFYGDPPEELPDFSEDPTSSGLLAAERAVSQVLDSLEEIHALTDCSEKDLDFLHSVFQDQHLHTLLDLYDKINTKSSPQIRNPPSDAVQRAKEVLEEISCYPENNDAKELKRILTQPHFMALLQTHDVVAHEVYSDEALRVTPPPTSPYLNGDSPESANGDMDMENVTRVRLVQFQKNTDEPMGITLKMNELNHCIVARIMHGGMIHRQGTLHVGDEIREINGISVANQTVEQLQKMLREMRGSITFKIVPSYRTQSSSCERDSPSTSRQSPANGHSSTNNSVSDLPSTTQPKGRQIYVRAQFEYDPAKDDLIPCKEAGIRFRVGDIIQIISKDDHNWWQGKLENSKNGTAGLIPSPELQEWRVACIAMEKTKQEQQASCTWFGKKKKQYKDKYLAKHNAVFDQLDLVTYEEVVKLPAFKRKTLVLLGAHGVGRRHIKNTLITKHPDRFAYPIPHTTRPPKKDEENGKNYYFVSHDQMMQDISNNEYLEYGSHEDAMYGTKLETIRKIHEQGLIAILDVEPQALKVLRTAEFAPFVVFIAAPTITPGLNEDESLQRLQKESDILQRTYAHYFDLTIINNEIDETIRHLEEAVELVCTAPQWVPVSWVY
MERTK (human), sequence (Q12866 whole entry, looked up): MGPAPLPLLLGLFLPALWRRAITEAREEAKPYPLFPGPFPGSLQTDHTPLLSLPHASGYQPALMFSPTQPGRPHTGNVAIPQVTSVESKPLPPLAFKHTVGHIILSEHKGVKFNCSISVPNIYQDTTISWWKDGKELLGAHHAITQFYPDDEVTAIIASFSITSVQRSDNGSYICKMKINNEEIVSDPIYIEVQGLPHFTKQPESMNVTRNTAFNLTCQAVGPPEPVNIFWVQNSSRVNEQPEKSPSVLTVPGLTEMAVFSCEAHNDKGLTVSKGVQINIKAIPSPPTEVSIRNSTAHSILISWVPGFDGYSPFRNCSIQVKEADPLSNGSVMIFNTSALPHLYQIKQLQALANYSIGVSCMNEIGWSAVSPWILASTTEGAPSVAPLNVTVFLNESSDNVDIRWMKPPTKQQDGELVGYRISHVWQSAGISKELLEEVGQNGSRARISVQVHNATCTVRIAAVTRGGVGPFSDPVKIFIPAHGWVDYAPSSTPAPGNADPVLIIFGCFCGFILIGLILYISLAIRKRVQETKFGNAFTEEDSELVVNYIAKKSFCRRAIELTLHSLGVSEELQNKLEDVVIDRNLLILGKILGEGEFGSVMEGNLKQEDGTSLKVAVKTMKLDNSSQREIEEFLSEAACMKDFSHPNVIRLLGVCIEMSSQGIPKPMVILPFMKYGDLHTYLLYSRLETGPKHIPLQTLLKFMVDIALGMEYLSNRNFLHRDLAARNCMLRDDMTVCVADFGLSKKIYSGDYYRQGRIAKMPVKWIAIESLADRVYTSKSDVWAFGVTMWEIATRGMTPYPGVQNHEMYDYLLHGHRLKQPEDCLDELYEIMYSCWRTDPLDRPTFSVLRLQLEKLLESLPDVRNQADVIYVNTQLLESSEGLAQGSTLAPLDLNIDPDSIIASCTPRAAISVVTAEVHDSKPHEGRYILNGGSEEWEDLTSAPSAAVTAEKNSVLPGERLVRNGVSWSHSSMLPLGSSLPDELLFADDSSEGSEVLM
YSK4 (human), sequence (Q56UN5 whole entry, looked up): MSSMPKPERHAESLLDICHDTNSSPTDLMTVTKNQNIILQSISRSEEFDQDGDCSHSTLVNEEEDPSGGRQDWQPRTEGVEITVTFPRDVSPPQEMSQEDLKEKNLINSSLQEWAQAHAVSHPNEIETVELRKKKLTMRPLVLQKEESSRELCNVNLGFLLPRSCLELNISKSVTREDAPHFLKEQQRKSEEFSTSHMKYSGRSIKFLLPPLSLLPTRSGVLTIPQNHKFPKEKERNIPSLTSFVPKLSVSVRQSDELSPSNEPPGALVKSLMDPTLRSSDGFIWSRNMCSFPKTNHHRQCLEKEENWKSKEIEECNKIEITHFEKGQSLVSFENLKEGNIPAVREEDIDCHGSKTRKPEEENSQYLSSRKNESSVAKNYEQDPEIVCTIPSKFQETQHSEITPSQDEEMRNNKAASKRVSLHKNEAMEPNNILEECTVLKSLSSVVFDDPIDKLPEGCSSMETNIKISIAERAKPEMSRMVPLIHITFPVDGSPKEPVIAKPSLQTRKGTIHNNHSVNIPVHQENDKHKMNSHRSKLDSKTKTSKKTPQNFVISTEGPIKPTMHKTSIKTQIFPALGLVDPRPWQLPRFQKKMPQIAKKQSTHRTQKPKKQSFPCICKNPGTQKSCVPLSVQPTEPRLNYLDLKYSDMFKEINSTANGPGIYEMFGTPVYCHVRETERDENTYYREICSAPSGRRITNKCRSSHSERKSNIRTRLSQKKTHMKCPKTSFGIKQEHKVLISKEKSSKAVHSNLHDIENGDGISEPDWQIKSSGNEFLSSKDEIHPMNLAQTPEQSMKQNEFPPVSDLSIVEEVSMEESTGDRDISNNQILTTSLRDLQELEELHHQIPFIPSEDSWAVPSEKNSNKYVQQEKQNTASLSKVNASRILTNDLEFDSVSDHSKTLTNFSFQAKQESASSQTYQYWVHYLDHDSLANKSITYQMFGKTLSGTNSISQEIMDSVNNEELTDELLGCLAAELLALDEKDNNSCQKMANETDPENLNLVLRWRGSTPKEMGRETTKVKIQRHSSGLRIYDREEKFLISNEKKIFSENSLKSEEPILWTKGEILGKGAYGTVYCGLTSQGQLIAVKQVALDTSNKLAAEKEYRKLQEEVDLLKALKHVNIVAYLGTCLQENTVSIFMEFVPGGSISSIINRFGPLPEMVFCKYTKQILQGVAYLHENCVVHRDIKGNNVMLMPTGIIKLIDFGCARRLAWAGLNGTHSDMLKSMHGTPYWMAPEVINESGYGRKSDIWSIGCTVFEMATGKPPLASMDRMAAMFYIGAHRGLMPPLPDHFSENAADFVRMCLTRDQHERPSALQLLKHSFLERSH

SMILES	kinase still bound, per cent of control (DDR2 (human))	kinase still bound, per cent of control (MERTK (human))	kinase still bound, per cent of control (MAP3K11 (human))	kinase still bound, per cent of control (PRPF4B (human))	kinase still bound, per cent of control (DAPK1 (human))	kinase still bound, per cent of control (PRKACA (human))	kinase still bound, per cent of control (CDK17 (human))	kinase still bound, per cent of control (MAPK13 (human))	kinase still bound, per cent of control (CAMK2B (human))	kinase still bound, per cent of control (CSNK2A2 (human))	kinase still bound, per cent of control (MAP2K7 (human))	kinase still bound, per cent of control (CLK4 (human))	kinase still bound, per cent of control (RPS6KA6 KD1 (human))	kinase still bound, per cent of control (STK3 (human))	kinase still bound, per cent of control (CASK (human))	kinase still bound, per cent of control (SYK (human))	kinase still bound, per cent of control (RET (human))	kinase still bound, per cent of control (PKMYT1 (human))	kinase still bound, per cent of control (CAMKK2 (human))	kinase still bound, per cent of control (MTOR (human))	also measured
N#Cc1c(NC(=O)c2cccc3ccccc23)sc2c1CCCC2	100%	100%	98%	100%	85%	78%	93%	46%	90%	94%	100%	84%	70%	91%	71%	99%	94%	77%	94%	100%	kinase still bound, per cent of control (CPK1 (P.falciparum)): 81%; kinase still bound, per cent of control (YSK4 (human)): 100%; kinase still bound, per cent of control (CDKL2 (human)): 97%; kinase still bound, per cent of control (AKT1 (human)): 94%; kinase still bound, per cent of control (PRKCH (human)): 87%; kinase still bound, per cent of control (CSNK1G1 (human)): 50%; kinase still bound, per cent of control (ANKK1 (human)): 78%; kinase still bound, per cent of control (ADCK3 (human)): 100%; kinase still bound, per cent of control (EPHA3 (human)): 100%; kinase still bound, per cent of control (MAST1 (human)): 100%; kinase still bound, per cent of control (PIK3C2B (human)): 100%; kinase still bound, per cent of control (EPHA4 (human)): 100%; kinase still bound, per cent of control (EPHB2 (human)): 75%; kinase still bound, per cent of control (FGFR4 (human)): 49%; kinase still bound, per cent of control (MAP2K4 (human)): 94%; kinase still bound, per cent of control (NEK7 (human)): 84%; kinase still bound, per cent of control (MKNK2 (human)): 92%; kinase still bound, per cent of control (EPHB4 (human)): 100%; kinase still bound, per cent of control (MAP3K6 (human)): 93%; kinase still bound, per cent of control (STK36 (human)): 66%
O=C(NC1CC1)c1cccc(-c2ccc3c(NC(=O)C4CC4)n[nH]c3c2)c1	90%	71%	100%	53%	91%	100%	37%	5%	84%	16%	100%	100%	91%	100%	82%	100%	86%	77%	94%	100%	kinase still bound, per cent of control (CPK1 (P.falciparum)): 18%; kinase still bound, per cent of control (YSK4 (human)): 5.9%; kinase still bound, per cent of control (CDKL2 (human)): 8.6%; kinase still bound, per cent of control (AKT1 (human)): 100%; kinase still bound, per cent of control (PRKCH (human)): 100%; kinase still bound, per cent of control (CSNK1G1 (human)): 85%; kinase still bound, per cent of control (ANKK1 (human)): 8%; kinase still bound, per cent of control (ADCK3 (human)): 78%; kinase still bound, per cent of control (EPHA3 (human)): 64%; kinase still bound, per cent of control (MAST1 (human)): 94%; kinase still bound, per cent of control (PIK3C2B (human)): 83%; kinase still bound, per cent of control (EPHA4 (human)): 100%; kinase still bound, per cent of control (EPHB2 (human)): 98%; kinase still bound, per cent of control (FGFR4 (human)): 94%; kinase still bound, per cent of control (MAP2K4 (human)): 66%; kinase still bound, per cent of control (NEK7 (human)): 100%; kinase still bound, per cent of control (MKNK2 (human)): 50%; kinase still bound, per cent of control (EPHB4 (human)): 100%; kinase still bound, per cent of control (MAP3K6 (human)): 86%; kinase still bound, per cent of control (STK36 (human)): 88%
CCN1CCN(Cc2ccc(Nc3ncc4c(n3)N(C)c3ccccc3C(=O)N4C)cc2C(F)(F)F)CC1	50%	48%	84%	76%	65%	100%	88%	100%	58%	100%	100%	100%	19%	8.1%	15%	78%	2.4%	100%	47%	39%	kinase still bound, per cent of control (CPK1 (P.falciparum)): 74%; kinase still bound, per cent of control (YSK4 (human)): 80%; kinase still bound, per cent of control (CDKL2 (human)): 80%; kinase still bound, per cent of control (AKT1 (human)): 100%; kinase still bound, per cent of control (PRKCH (human)): 100%; kinase still bound, per cent of control (CSNK1G1 (human)): 7.6%; kinase still bound, per cent of control (ANKK1 (human)): 18%; kinase still bound, per cent of control (ADCK3 (human)): 78%; kinase still bound, per cent of control (EPHA3 (human)): 100%; kinase still bound, per cent of control (MAST1 (human)): 100%; kinase still bound, per cent of control (PIK3C2B (human)): 71%; kinase still bound, per cent of control (EPHA4 (human)): 100%; kinase still bound, per cent of control (EPHB2 (human)): 100%; kinase still bound, per cent of control (FGFR4 (human)): 36%; kinase still bound, per cent of control (MAP2K4 (human)): 100%; kinase still bound, per cent of control (NEK7 (human)): 88%; kinase still bound, per cent of control (MKNK2 (human)): 0.2%; kinase still bound, per cent of control (EPHB4 (human)): 93%; kinase still bound, per cent of control (MAP3K6 (human)): 100%; kinase still bound, per cent of control (STK36 (human)): 82%
